In patent US9662390B2, “Use of opioid antagonists to attenuate endothelial cell proliferation and migration” (THE UNIVERSITY OF CHICAGO, priority 2005, dated 2017):
Entries after “also recorded” stand apart in the source; their conditions may differ.

Tests used:
VEGF receptor 1 (Flt-1) = experiment: Tyrosine phosphorylation of VEGF receptor 1, immunoprecipitation and immunoblot; format: cell-based, human; details: HPMVEC
[1] = sickle cell disease; cited from earlier work
S1P3 receptor = experiment: Tyrosine phosphorylation of the S1P3 receptor in EC (Example 9); format: cell-based, human
F11 c-1 = details: T241 fibrosarcoma; no increase in morphine treated KO mice; cited from earlier work
VEGF receptor = experiment: Tyrosine phosphorylation of the VEGF receptor in EC (Example 9); format: cell-based, human
[2] = tested on: human pulmonary microvascular endothelial cells (HPMVEC); experiment: Human pulmonary microvascular EC migration assay (Transwell); format: cell-based; details: for agonist-induced HPMVEC migration: agonist 100 nM, 18 hours
PDGF receptor = experiment: Tyrosine phosphorylation of the PDGF receptor in EC (Example 9); format: cell-based, human
RhoA = RhoA activation assay (RBD beads, anti-RhoA immunoblot); format: cell-based, human; details: for agonist-stimulated RhoA activation: endothelial cells
Text: The supernatant is removed and the RBD-beads with the GTP-bound form of RhoA bound are washed extensively.

[3] = tested on: human pulmonary microvascular endothelial cells (HPMVEC); experiment: Human pulmonary microvascular EC proliferation assay (CellTiter96 MTS); format: cell-based; details: for agonist-induced HPMVEC proliferation: agonist 100 nM, 24 h, serum-free media
VEGF receptor 2 (Flk-1) = experiment: Tyrosine phosphorylation of VEGF receptor 2, immunoprecipitation and immunoblot; format: cell-based, human; details: HPMVEC
mu opioid receptor = mu opioid receptor (Homo sapiens, UniProt P35372); experiment: Serine/threonine phosphorylation of the mu opioid receptor in EC (Example 9); format: cell-based
[4] = tested on: morphine induced angiogenesis; details: xenograft tumor model in mice; cited from earlier work
tumor = experiment: Human cancer patients: tumor growth and angiogenesis; format: in vivo; details: antagonist orally 5 mg/kg/day, eight weeks, with opioid and bevacizumab (Avastin)
tumors = experiment: Tumor-bearing mice: tumor growth and angiogenesis; format: in vivo; details: eight weeks; for angiogenesis and tumor growth, combination of opioid, opioid antagonist and anticancer agent compared to the other groups: antagonist 5 mg/kg/day, morphine 0.5 mg/kg/day, bevacizumab (Avastin) 5 mg/kg every 14 days; for tumor growth and angiogenesis compared to controls or opioid alone: antagonist orally 5 mg/kg/day with morphine orally 0.5 mg/kg/day
[5] = white crystalline powder, typically the bromide salt; cited from earlier work
[6] = in vivo; cited from earlier work
[7] = MNTX 100 nM (0.1 μM, 1 hour pretreatment), induced by MS/morphine, DAMGO, VEGF, in Example 9 also S1P and PDGF

Sequence of mu opioid receptor (P35372 whole entry): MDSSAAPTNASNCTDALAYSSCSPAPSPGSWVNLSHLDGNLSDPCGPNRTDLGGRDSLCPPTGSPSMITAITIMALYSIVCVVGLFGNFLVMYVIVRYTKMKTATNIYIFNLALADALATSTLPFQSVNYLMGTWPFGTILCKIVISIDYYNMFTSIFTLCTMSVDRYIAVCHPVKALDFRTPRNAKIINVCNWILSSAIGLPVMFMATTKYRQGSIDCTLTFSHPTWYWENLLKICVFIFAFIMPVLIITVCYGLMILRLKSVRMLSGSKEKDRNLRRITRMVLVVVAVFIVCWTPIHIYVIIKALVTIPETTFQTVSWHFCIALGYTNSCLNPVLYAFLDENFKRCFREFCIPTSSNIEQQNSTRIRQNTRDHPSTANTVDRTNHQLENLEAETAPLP

CN1CC[C@]23c4c5ccc(O)c4O[C@H]2[C@@H](O)C=C[C@H]3[C@H]1C5 [morphine]
agonist-induced tyrosine phosphorylation of VEGF receptor 1 (Flt-1) (VEGF receptor 1 (Flt-1)): induce tyrosine phosphorylation
proliferative retinopathy [1]: induced proliferative retinopathy
agonist-induced tyrosine phosphorylation of the S1P3 receptor (S1P3 receptor): induced tyrosine phosphorylation
increase in F11 c-1 expression in morphine treated mice versus controls (F11 c-1): 10 fold
agonist-induced tyrosine phosphorylation of the VEGF receptor (VEGF receptor): induced tyrosine phosphorylation
agonist-induced HPMVEC migration [2]: induced
agonist-induced HPMVEC migration ([2]; listed as MS): induce HPMVEC migration
agonist-induced tyrosine phosphorylation of the PDGF receptor (PDGF receptor): induced tyrosine phosphorylation
agonist-stimulated RhoA activation (RhoA): stimulate RhoA activation
agonist-stimulated RhoA activation (RhoA; listed as MS): stimulate RhoA activation
agonist-induced HPMVEC proliferation [3]: induced proliferation
agonist-induced HPMVEC proliferation ([3]; listed as MS): stimulate HPMVEC proliferation
agonist-induced tyrosine phosphorylation of VEGF receptor 2 (Flk-1) (VEGF receptor 2 (Flk-1)): induce tyrosine phosphorylation

vascular endothelial growth factor [VEGF]
agonist-induced serine/threonine phosphorylation of the mu opioid receptor (mu opioid receptor): induced serine/threonine phosphorylation
agonist-induced tyrosine phosphorylation of VEGF receptor 1 (Flt-1) (VEGF receptor 1 (Flt-1)): induced
agonist-induced HPMVEC migration [2]: induce HPMVEC migration; also recorded: induced
agonist-stimulated RhoA activation (RhoA): stimulate RhoA activation; also recorded: activation of the cytoskeletal regulatory small G-protein, RhoA
agonist-induced HPMVEC proliferation [3]: stimulate HPMVEC proliferation; also recorded: induced proliferation
agonist-induced tyrosine phosphorylation of VEGF receptor 2 (Flk-1) (VEGF receptor 2 (Flk-1)): induced

CCCCCCCCCCCCC/C=C/[C@@H](O)[C@@H](N)COP(=O)(O)O [SIP, sphingosine 1-phosphate]
agonist-induced serine/threonine phosphorylation of the mu opioid receptor (mu opioid receptor): induced serine/threonine phosphorylation
agonist-induced HPMVEC migration [2]: induced
agonist-stimulated RhoA activation (RhoA): activation of the cytoskeletal regulatory small G-protein, RhoA
agonist-induced HPMVEC proliferation [3]: induced proliferation

C=CCN1CC[C@]23c4c5ccc(O)c4O[C@H]2C(=O)CC[C@@]3(O)[C@H]1C5 [naloxone]
effect on morphine induced angiogenesis [4]: did not exhibit a significant effect

platelet-derived growth factor [PDGF]
agonist-induced serine/threonine phosphorylation of the mu opioid receptor (mu opioid receptor): induced serine/threonine phosphorylation
agonist-induced HPMVEC migration [2]: induced
agonist-stimulated RhoA activation (RhoA): activation of the cytoskeletal regulatory small G-protein, RhoA
agonist-induced HPMVEC proliferation [3]: induced proliferation

C[C@H]1CN(C[C@H](Cc2ccccc2)C(=O)NCC(=O)O)CC[C@@]1(C)c1cccc(O)c1 [alvimopan]
angiogenesis and tumor growth, combination of opioid, opioid antagonist and anticancer agent compared to the other groups (tumor): enhanced result
angiogenesis and tumor growth, combination of opioid, opioid antagonist and anticancer agent compared to the other groups (tumors): enhanced result
tumor growth and angiogenesis compared to controls or opioid alone (tumors): reduction in tumor growth and angiogenesis

C[N+]1(CC2CC2)CCC23c4c5ccc(O)c4OC2C(=O)CCC3(O)C1C5 (stereo not shown) [MNTX, N-methylnaltrexone]
effect of MNTX pretreatment on agonist-induced mu opioid receptor phosphorylation (mu opioid receptor): attenuated
effect on MS and DAMGO induced tyrosine phosphorylation of VEGF receptor 1 (VEGF receptor 1 (Flt-1)): blocked
effect on VEGF induced tyrosine phosphorylation of VEGF receptor 1 (VEGF receptor 1 (Flt-1)): attenuates
effect of MNTX pretreatment on agonist-induced S1P3 receptor phosphorylation (S1P3 receptor): attenuated
angiogenesis and tumor growth, combination of opioid, opioid antagonist and anticancer agent compared to the other groups (tumor): enhanced result
effect of MNTX pretreatment on agonist-induced VEGF receptor phosphorylation (VEGF receptor): attenuated
inhibition of agonist-induced HPMVEC migration [2, 7]: inhibited
solubility in water [5]: freely soluble in water
effect of MNTX pretreatment on agonist-induced PDGF receptor phosphorylation (PDGF receptor): attenuated
angiogenesis and tumor growth, combination of opioid, opioid antagonist and anticancer agent compared to the other groups (tumors): enhanced result
tumor growth and angiogenesis compared to controls or opioid alone (tumors): reduction in tumor growth and angiogenesis
tolerability of doses that maintain plasma MNTX between about 25 and 150 ng/mL [6]: well tolerated
effect on agonist-stimulated RhoA activation (RhoA; induced by morphine/MS, DAMGO, VEGF, in Example 9 also S1P and PDGF): inhibited; also recorded: attenuated
inhibition of agonist-induced HPMVEC proliferation [3, 7]: attenuated; also recorded: inhibited
effect on MS and DAMGO induced tyrosine phosphorylation of VEGF receptor 2 (VEGF receptor 2 (Flk-1)): blocked
effect on VEGF induced tyrosine phosphorylation of VEGF receptor 2 (VEGF receptor 2 (Flk-1)): attenuates

C[C@@H](NC(=O)[C@@H](N)Cc1ccc(O)cc1)C(=O)NCC(=O)N(C)[C@@H](Cc1ccccc1)C(=O)NCCO [DAMGO, [D-Ala^2, N-MePhe^4, Gly^5-ol] enkephalin]
agonist-induced tyrosine phosphorylation of VEGF receptor 1 (Flt-1) (VEGF receptor 1 (Flt-1)): induce tyrosine phosphorylation
agonist-induced tyrosine phosphorylation of the S1P3 receptor (S1P3 receptor): induced tyrosine phosphorylation
agonist-induced tyrosine phosphorylation of the VEGF receptor (VEGF receptor): induced tyrosine phosphorylation
agonist-induced HPMVEC migration [2]: induce HPMVEC migration; also recorded: induced
agonist-induced tyrosine phosphorylation of the PDGF receptor (PDGF receptor): induced tyrosine phosphorylation
agonist-stimulated RhoA activation (RhoA): stimulate RhoA activation
agonist-induced HPMVEC proliferation [3]: stimulate HPMVEC proliferation; also recorded: induced proliferation
agonist-induced tyrosine phosphorylation of VEGF receptor 2 (Flk-1) (VEGF receptor 2 (Flk-1)): induce tyrosine phosphorylation
